Experimental data: patent publication US20250195513A1, “DEGRADATION OF IRAK4 BY CONJUGATION OF IRAK4 INHIBITORS WITH E3 LIGASE LIGAND AND METHODS OF USE” (BeiGene, Ltd., priority 2022, published 2025)

How the values were obtained:
[1] = target: T1, IRAK4 (Homo sapiens, UniProt Q9NWZ3); assay: IRAK4 Degradation Assay with Human Serum (Karpas299, HTRF/TR-FRET); type: cell-based; conditions: Karpas-299 in human serum, 24 hrs treatment; for DC50: read-out: IRAK4 degradtion with human serum assay DC50; for Dmax: read-out: IRAK4 degradtion with human serum assay Dmax (%)
T1 construct: endogenous in cells; host or cells: Karpas299
T1 sequence (Q9NWZ3 1-460): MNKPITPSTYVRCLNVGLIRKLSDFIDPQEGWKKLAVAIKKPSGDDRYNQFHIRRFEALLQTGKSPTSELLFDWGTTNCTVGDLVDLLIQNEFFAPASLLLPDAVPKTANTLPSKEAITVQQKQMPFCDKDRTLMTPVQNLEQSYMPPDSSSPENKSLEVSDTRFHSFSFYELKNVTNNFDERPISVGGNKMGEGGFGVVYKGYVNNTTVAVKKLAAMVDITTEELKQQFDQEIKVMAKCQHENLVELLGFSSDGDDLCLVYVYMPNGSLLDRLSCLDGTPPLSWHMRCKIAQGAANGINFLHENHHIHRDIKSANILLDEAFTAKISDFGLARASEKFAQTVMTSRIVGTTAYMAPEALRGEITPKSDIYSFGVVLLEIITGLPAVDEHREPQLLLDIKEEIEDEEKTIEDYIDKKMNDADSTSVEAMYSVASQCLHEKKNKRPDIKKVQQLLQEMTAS
Summary of the method: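 Karpas299 cells in human AB serum (0.2 million/well) treated with serial compound dilutions for 24 h. After lysis, IRAK4 quantified by HTRF (overnight antibody incubation at room temperature, 665/620 nm read). Degradation percentage fitted to four-parameter curve to give DC50.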

[2] = target: T1, IRAK4; assay: IRAK4 Degradation Assay (Karpas299, HTRF/TR-FRET); type: cell-based; conditions: Karpas-299 cells, 24 h treatment; for Dmax: maximum percentage of degradation, read-out: IRAK4 in Karpas-299 (24 h) Dmax (%); for DC50: read-out: IRAK4 in Karpas-299 (24 h) DC50
Summary of the method: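 Karpas299 cells at 0.2 million per well were exposed to serially diluted compounds for 24 h or 5 h, then lysed. IRAK4 remaining in lysates was quantified by HTRF (665/620 nm) after overnight antibody incubation at room temperature. Percent degradation was fitted to a four-parameter curve to give IC50 (DC50).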

Row | SMILES | DC50 [1] | Dmax [1] | Dmax [2] | DC50 [2]
1 | CC(C)(O)c1cc2nn([C@H]3CC[C@H](N4CCN([C@H]5CCN(c6cc(F)c(C7CCC(=O)NC7=O)c(F)c6)C5)CC4)CC3)cc2cc1NC(=O)c1ccc2cc(C#N)cnn12 (stereo partly drawn) [Example 395, 3-cyano-N-(2-((1S,4r)-4-(4-((3S)-1-(4-(2,6-dioxopiperidin-3-yl)-3,5-difluorophenyl)pyrrolidin-3-yl)piperazin-1-yl)cyclohexyl)-6-(2-hydroxypropan-2-yl)-2H-indazol-5-yl)pyrrolo[1,2-b]pyridazine-7-carboxamide] | 21 nM | 99% | 97% | 0.8 nM
2 | COC[C@@H]1CN(C2CCN(c3cc(F)c([C@H]4CCC(=O)NC4=O)c(F)c3)CC2)CCN1[C@H]1CC[C@H](n2cc3cc(NC(=O)c4ccc5cc(C#N)cnn45)c(C(C)(C)O)cc3n2)CC1 [Example 328, 3-cyano-N-(2-((1S,4r)-4-((S)-4-(1-(4-((R)-2,6-dioxopiperidin-3-yl)-3,5-difluorophenyl)piperidin-4-yl)-2-(methoxymethyl)piperazin-1-yl)cyclohexyl)-6-(2-hydroxypropan-2-yl)-2H-indazol-5-yl)pyrrolo[1,2-b]pyridazine-7-carboxamide] | 19 nM | 101% | 98% | 0.8 nM
3 | COC[C@@H]1CN([C@H]2CC[C@H](n3cc4cc(NC(=O)c5ccc6cc(C#N)cnn56)c(C(C)(C)O)cc4n3)CC2)CCN1C(=O)C1CN(c2cc(F)c(N3CCC(=O)NC3=O)c(F)c2)C1 [Example 410, 3-cyano-N-(2-((1S,4r)-4-((S)-4-(1-(4-(2,4-dioxotetrahydropyrimidin-1(2H)-yl)-3,5-difluorophenyl)azetidine-3-carbonyl)-3-(methoxymethyl)piperazin-1-yl)cyclohexyl)-6-(2-hydroxypropan-2-yl)-2H-indazol-5-yl)pyrrolo[1,2-b]pyridazine-7-carboxamide] | 18 nM | 91% | 98% | 1.8 nM
4 | CC(C)(O)c1cc2nn([C@H]3CC[C@H](N4CCN(C(=O)C5CN(c6cc(F)c([C@H]7CCC(=O)NC7=O)c(F)c6)C5)CC4)CC3)cc2cc1NC(=O)c1ccc2cc(C(F)(F)F)cnn12 [Example 207] | 191 nM | 97% | 97% | 1.9 nM
5 | CC(C)(O)c1cc2nn([C@H]3CC[C@H](N4CCN([C@H]5C[C@@H](c6ccc(N[C@H]7CCC(=O)NC7=O)cc6)C5)CC4)CC3)cc2cc1NC(=O)c1ccc2cc(C#N)cnn12 [Example 273, 3-cyano-N-(2-((1R,4r)-4-(4-((1R,3S)-3-(4-(((S)-2,6-dioxopiperidin-3-yl)amino)phenyl)cyclobutyl)piperazin-1-yl)cyclohexyl)-6-(2-hydroxypropan-2-yl)-2H-indazol-5-yl)pyrrolo[12-b]pyridazine-7-carboxamide] | 9.3 nM | 98% | 95% | 5 nM
6 | C[C@H]1CN([C@H]2CC[C@H](n3cc4cc(NC(=O)c5ccc6cc(C#N)cnn56)c(C(C)(C)O)cc4n3)CC2)CCN1C(=O)C1CN(c2cc(F)c(N3CCC(=O)NC3=O)c(F)c2)C1 [Example 312, 3-cyano-N-(2-((1S,4r)-4-((S)-4-(1-(4-(2,4-dioxotetrahydropyrimidin-1(2H)-yl)-3,5-difluorophenyl)azetidine-3-carbonyl)-3-methylpiperazin-1-yl)cyclohexyl)-6-(2-hydroxypropan-2-yl)-2H-indazol-5-yl)pyrrolo[1,2-b]pyridazine-7-carboxamide] | 34 nM | 99% | 97% | 2.4 nM
